Assay results taken from patent publication US11851440B2, “Modulators of eukaryotic initiation factor 2B, compositions and methods” (Denali Therapeutics Inc., priority 2017, dated 2023).

Each compound was assayed on ISR pathway (ATF4 translation) (assay: ATF4 Nano Luciferase reporter integrated stress response (ISR) assay in H4 ATF4-NLuc cells). Details: H4 ATF4-NLuc (clone 17) cells; compound 30 minutes, then 50 um sodium arsenite for 6 hours; luminescence readout.

SMILES | IC50 [nM]
O=C(NC12CC(c3nnc([C@H]4C[C@@H](OC(F)(F)F)C4)o3)(C1)C2)c1ccc2cc(F)ccc2n1 [Example 189, 6-fluoro-N-[1-[5-[3-cis-(trifluoromethoxy)cyclobutyl]-1,3,4-oxadiazol-2-yl]-3-bicyclo[1.1.1]pentanyl]quinoline-2-carboxamide] | 28.5

Same assay, conditions: Homo sapiens, H4 ATF4-NLuc (clone 17) cells; compound 30 minutes, then 50 um sodium arsenite for 6 hours; luminescence readout

SMILES | IC50 [nM]
O=C(CO[C@H]1C[C@@H](OC(F)(F)F)C1)NC12CC(n3cnc(-c4ccc(F)cc4)c3)(C1)C2 [Example 136] | 22
O=C(CO[C@H]1C[C@@H](OC(F)(F)F)C1)NC12CC(n3cnc(-c4ccc(C(F)(F)F)cc4F)c3)(C1)C2 [Example 148] | 2.6
O=C(COc1ccc(C(F)(F)F)nc1)NC12CC(n3cnc(C4CC(OC(F)(F)F)C4)c3)(C1)C2 (stereo not drawn) [Example 151] | 35.5
O=C(COCCOC(F)(F)F)NC12CC(n3cnc(-c4ccc(Cl)c(F)c4)c3)(C1)C2 [Example 152] | 38.2
O=C(COc1ccc(C(F)(F)F)nc1)NC12CC(n3cnc(-c4ccc(F)c(F)c4)c3)(C1)C2 [Example 161] | 13.4
O=C(COc1ccc(C(F)(F)F)cc1)NC12CC(c3nnc([C@H]4C[C@@H](OC(F)(F)F)C4)o3)(C1)C2 [Example 162, N-[1-[5-[3-cis-(trifluoromethoxy)cyclobutyl]-1,3,4-oxadiazol-2-yl]-3-bicyclo[1.1.1]pentanyl]-2-[4-(trifluoromethyl)phenoxy]acetamide] | 14.9
O=C(COc1ccc(Br)cc1)NC12CC(c3nnc([C@H]4C[C@@H](OC(F)(F)F)C4)o3)(C1)C2 [Example 163] | 8.5
O=C(NC12CC(c3nnc([C@H]4C[C@@H](OC(F)(F)F)C4)o3)(C1)C2)c1ccc2cc(C(F)(F)F)ccc2n1 [Example 166, N-[1-[5-[3-cis-(trifluoromethoxy)cyclobutyl]-1,3,4-oxadiazol-2-yl]-3-bicyclo[1.1.1]pentanyl]-6-(trifluoromethyl)quinoline-2-carboxamide] | 8.1
O=C(NC12CC(c3nnc([C@H]4C[C@@H](OC(F)(F)F)C4)o3)(C1)C2)c1ccc2cc(Cl)cnc2c1 [Example 167, 3-chloro-N-[1-[5-[3-cis-(trifluoromethoxy)cyclobutyl]-1,3,4-oxadiazol-2-yl]-3-bicyclo[1.1.1]pentanyl]quinoline-7-carboxamide] | 43.9
O=C(NC12CC(c3nnc([C@H]4C[C@@H](OC(F)(F)F)C4)o3)(C1)C2)c1ccc2cc(Cl)ccc2n1 [Example 169] | 3.8

Same assay, conditions: Homo sapiens, read-out: Activity (IC50), H4 ATF4-NLuc (clone 17) cells; compound 30 minutes, then 50 um sodium arsenite for 6 hours; luminescence readout

SMILES | IC50 [nM]
O=C(CO[C@H]1C[C@@H](OC(F)(F)F)C1)NC12CC(n3cnc(-c4cccc(C(F)(F)F)c4)c3)(C1)C2 [Example 134] | < 1000
O=C(CO[C@H]1C[C@@H](OC(F)(F)F)C1)NC12CC(n3cnc(-c4ccc(F)cc4F)c3)(C1)C2 [Example 135] | < 1000
O=C(CO[C@H]1C[C@@H](OC(F)(F)F)C1)NC12CC(n3cnc(-c4ccc(F)cc4)c3)(C1)C2 [Example 136] | < 1000
O=C(CO[C@H]1C[C@@H](OC(F)(F)F)C1)NC12CC(n3cnc(-c4cccc(F)c4)c3)(C1)C2 [Example 137] | < 1000
O=C(CO[C@H]1C[C@@H](OC(F)(F)F)C1)NC12CC(n3cnc(-c4ccc(F)c(F)c4)c3)(C1)C2 [Example 138] | < 1000
Cc1ccc(-c2cn(C34CC(NC(=O)CO[C@H]5C[C@@H](OC(F)(F)F)C5)(C3)C4)cn2)cc1F [Example 140] | < 1000
O=C(CO[C@H]1C[C@H](OC(F)(F)F)C1)NC12CC(n3cnc(-c4ccc(Cl)cc4)c3)(C1)C2 [Example 141] | < 1000
Cc1cc(F)ccc1-c1cn(C23CC(NC(=O)CO[C@H]4C[C@@H](OC(F)(F)F)C4)(C2)C3)cn1 [Example 142] | < 1000
O=C(COc1ccc(F)c(F)c1)NC12CC(n3cnc([C@H]4C[C@@H](OC(F)(F)F)C4)c3)(C1)C2 [Example 143] | < 1000
O=C(COc1ccc(F)c(F)c1)NC12CC(n3cnc([C@H]4C[C@H](OC(F)(F)F)C4)c3)(C1)C2 [Example 144] | < 1000
O=C(COCCn1cc(F)cn1)NC12CC(n3cnc(-c4ccc(Cl)cc4)c3)(C1)C2 [Example 145] | < 1000
Cc1cc(-c2cn(C34CC(NC(=O)CO[C@H]5C[C@@H](OC(F)(F)F)C5)(C3)C4)cn2)ccc1F [Example 147] | < 1000
O=C(CO[C@H]1C[C@@H](OC(F)(F)F)C1)NC12CC(n3cnc(-c4ccc(C(F)(F)F)cc4F)c3)(C1)C2 [Example 148] | < 1000
O=C(CO[C@H]1C[C@@H](OC(F)(F)F)C1)NC12CC(n3cnc(-c4ccc(C(F)(F)F)c(F)c4)c3)(C1)C2 [Example 149] | < 1000
O=C(CO[C@H]1C[C@@H](OC(F)(F)F)C1)NC12CC(n3cnc(-c4ccc(C(F)(F)F)cc4)c3)(C1)C2 [Example 150] | < 1000
O=C(COc1ccc(C(F)(F)F)nc1)NC12CC(n3cnc(C4CC(OC(F)(F)F)C4)c3)(C1)C2 (stereo not drawn) [Example 151] | < 1000
O=C(COCCOC(F)(F)F)NC12CC(n3cnc(-c4ccc(Cl)c(F)c4)c3)(C1)C2 [Example 152] | < 1000
O=C(NC12CC(n3cnc(-c4ccc(Cl)c(F)c4)c3)(C1)C2)[C@H]1C[C@@H](OC(F)(F)F)C1 [Example 153] | < 1000
CC(C)(Oc1ccc(Cl)cc1)C(=O)NC12CC(c3nnc([C@H]4C[C@@H](OC(F)(F)F)C4)o3)(C1)C2 [Example 154] | < 1000
O=C(NC12CC(n3cnc(-c4ccc(Cl)c(F)c4)c3)(C1)C2)C1CCN(CC(F)(F)F)CC1 [Example 155] | < 1000

SMILES | IC50 [nM]
O=C(COc1cccc(Cl)c1)NC12CC(c3nnc([C@H]4C[C@@H](OC(F)(F)F)C4)o3)(C1)C2 [Example 156] | < 1000
O=C(COc1ccc(C(F)(F)F)nc1)NC12CC(n3cnc(-c4ccc(F)c(F)c4)c3)(C1)C2 [Example 161] | < 1000
O=C(COc1ccc(C(F)(F)F)cc1)NC12CC(c3nnc([C@H]4C[C@@H](OC(F)(F)F)C4)o3)(C1)C2 [Example 162, N-[1-[5-[3-cis-(trifluoromethoxy)cyclobutyl]-1,3,4-oxadiazol-2-yl]-3-bicyclo[1.1.1]pentanyl]-2-[4-(trifluoromethyl)phenoxy]acetamide] | < 1000
O=C(COc1ccc(Br)cc1)NC12CC(c3nnc([C@H]4C[C@@H](OC(F)(F)F)C4)o3)(C1)C2 [Example 163] | < 1000
O=C(NC12CC(c3nnc([C@H]4C[C@@H](OC(F)(F)F)C4)o3)(C1)C2)c1ccc(OC(F)(F)F)cn1 [Example 164] | < 1000
O=C(NC12CC(c3nnc(C4CC(OC(F)(F)F)C4)o3)(C1)C2)c1nc2cc(Cl)ccc2o1 (stereo not drawn) [Example 165] | < 1000
O=C(NC12CC(c3nnc([C@H]4C[C@@H](OC(F)(F)F)C4)o3)(C1)C2)c1ccc2cc(C(F)(F)F)ccc2n1 [Example 166, N-[1-[5-[3-cis-(trifluoromethoxy)cyclobutyl]-1,3,4-oxadiazol-2-yl]-3-bicyclo[1.1.1]pentanyl]-6-(trifluoromethyl)quinoline-2-carboxamide] | < 1000
O=C(NC12CC(c3nnc([C@H]4C[C@@H](OC(F)(F)F)C4)o3)(C1)C2)c1ccc2cc(Cl)cnc2c1 [Example 167, 3-chloro-N-[1-[5-[3-cis-(trifluoromethoxy)cyclobutyl]-1,3,4-oxadiazol-2-yl]-3-bicyclo[1.1.1]pentanyl]quinoline-7-carboxamide] | < 1000
O=C(NC12CC(c3nnc([C@H]4C[C@@H](OC(F)(F)F)C4)o3)(C1)C2)c1cnc2cc(Cl)ccc2c1 [Example 168] | < 1000
O=C(NC12CC(c3nnc([C@H]4C[C@@H](OC(F)(F)F)C4)o3)(C1)C2)c1ccc2cc(Cl)ccc2n1 [Example 169] | < 1000
O=C(NC12CC(c3nnc([C@H]4C[C@@H](OC(F)(F)F)C4)o3)(C1)C2)c1cn2ccc(F)cc2n1 [Example 170] | < 1000
O=C(NC12CC(c3nnc([C@H]4C[C@@H](OC(F)(F)F)C4)o3)(C1)C2)c1cc2ccc(Cl)cn2n1 [Example 171] | < 1000
O=C(CO[C@H]1C[C@@H](n2nccn2)C1)NC12CC(c3nnc([C@H]4C[C@@H](OC(F)(F)F)C4)o3)(C1)C2 [Example 172] | 1000 to 10000
O=C(COc1cccc(OC(F)(F)F)c1)NC12CC(c3nnc([C@H]4C[C@@H](OC(F)(F)F)C4)o3)(C1)C2 [Example 173] | < 1000
O=C(COc1ccc(C(F)(F)F)nc1)NC12CC(c3nnc([C@H]4C[C@@H](OC(F)(F)F)C4)o3)(C1)C2 [Example 174] | < 1000
O=C(NC12CC(c3nnc([C@H]4C[C@@H](OC(F)(F)F)C4)o3)(C1)C2)c1nc2cc(Cl)ccc2s1 [Example 175] | < 1000
O=C(NC12CC(c3nnc([C@H]4C[C@@H](OC(F)(F)F)C4)o3)(C1)C2)c1nc2cc(Cl)ccn2n1 [Example 176] | < 1000
O=C(NC12CC(c3nnc([C@H]4C[C@@H](OC(F)(F)F)C4)o3)(C1)C2)c1cn2ncc(Cl)cc2n1 [Example 177] | < 1000
O=C(NC12CC(c3nnc([C@H]4C[C@@H](OC(F)(F)F)C4)o3)(C1)C2)c1cn2cc(F)ccc2n1 [Example 180] | 1000 to 10000

The remaining lines, values ahead:

IC50 [nM] | SMILES
< 1000 | O=C(NC12CC(c3nnc([C@H]4C[C@@H](OC(F)(F)F)C4)o3)(C1)C2)c1cc2ccc(Cl)n2cn1 [Example 181]
< 1000 | O=C(NC12CC(c3nnc([C@H]4C[C@@H](OC(F)(F)F)C4)o3)(C1)C2)c1cc2ccc(Cl)cc2nn1 [Example 183]
< 1000 | O=C(NC12CC(c3nnc([C@H]4C[C@@H](OC(F)(F)F)C4)o3)(C1)C2)c1cc2ccc(Br)cc2cn1 [Example 184]
< 1000 | O=C(NC12CC(c3nnc([C@H]4C[C@@H](OC(F)(F)F)C4)o3)(C1)C2)c1cn2ccc(C(F)(F)F)cc2n1 [Example 185]
< 1000 | O=C(NC12CC(c3nnc([C@H]4C[C@@H](OC(F)(F)F)C4)o3)(C1)C2)c1cn2cc(C(F)(F)F)ccc2n1 [Example 186]
< 1000 | O=C(NC12CC(c3nnc([C@H]4C[C@@H](OC(F)(F)F)C4)o3)(C1)C2)c1ccc2ccccc2n1 [Example 187]
< 1000 | O=C(NC12CC(c3nnc([C@H]4C[C@@H](OC(F)(F)F)C4)o3)(C1)C2)c1cnc2ccccc2n1 [Example 188]
< 1000 | O=C(NC12CC(c3nnc([C@H]4C[C@@H](OC(F)(F)F)C4)o3)(C1)C2)c1ncc2ccccc2n1 [Example 191]
< 1000 | O=C(NC12CC(c3nnc([C@H]4C[C@@H](OC(F)(F)F)C4)o3)(C1)C2)c1nc2ccc(Cl)cc2s1 [Example 192]
< 1000 | O=C(NC12CC(c3nnc([C@H]4C[C@@H](OC(F)(F)F)C4)o3)(C1)C2)c1nc2cc(Br)ccc2o1 [Example 193]
< 1000 | O=C(NC12CC(c3nnc([C@H]4C[C@@H](OC(F)(F)F)C4)o3)(C1)C2)c1cn2cc(F)c(Cl)cc2n1 [Example 194]
< 1000 | O=C(NC12CC(c3nnc([C@H]4C[C@@H](OC(F)(F)F)C4)o3)(C1)C2)c1ncc2cc(Cl)ccc2n1 [Example 195]
< 1000 | O=C(NC12CC(c3nnc([C@H]4C[C@@H](OC(F)(F)F)C4)o3)(C1)C2)c1ccc2cc(Cl)c(F)cc2n1 [Example 196]
< 1000 | O=C(COc1ccc(Cl)c(F)c1)NC12CC(NCCO[C@H]3C[C@@H](n4nccn4)C3)(C1)C2 [Example 197]
< 1000 | O=C(CO[C@H]1C[C@@H](OC(F)(F)F)C1)NC12CC(n3cc(-c4ccc(Cl)cc4)oc3=O)(C1)C2 [Example 198]
< 1000 | O=C(CO[C@H]1C[C@@H](OC(F)(F)F)C1)NC12CC(c3nnc(-c4ccc(C(F)(F)F)cn4)o3)(C1)C2 [Example 199]
< 1000 | O=C(COc1ccc(Cl)c(F)c1)NC12CC(n3cnnn3)(C1)C2 [Example 200]
< 1000 | O=C(CO[C@H]1C[C@@H](OC(F)(F)F)C1)NC12CC(c3nc(-c4ccc(Cl)c(F)c4)no3)(C1)C2 [Example 201]

Same assay, conditions: read-out: Activity (IC50); H4 ATF4-NLuc (clone 17) cells; compound 30 minutes, then 50 um sodium arsenite for 6 hours; luminescence readout

SMILES | IC50 [nM]
O=C(NC12CC(c3nnc([C@H]4C[C@@H](OC(F)(F)F)C4)o3)(C1)C2)c1ccc2cc(F)ccc2n1 [Example 189, 6-fluoro-N-[1-[5-[3-cis-(trifluoromethoxy)cyclobutyl]-1,3,4-oxadiazol-2-yl]-3-bicyclo[1.1.1]pentanyl]quinoline-2-carboxamide] | < 1000
